Among the data in patent US20230031406A1, “COMPOUNDS AND COMPOSITIONS FOR TREATING CONDITIONS ASSOCIATED WITH NLRP ACTIVITY” (Novartis AG, priority 2018, published 2023) are IC50 values, retold here.

Structures are written as SMILES. Where two headings read alike, the source gives them in different places.

The assay deals with PMA-differentiated THP-1 cells. The assay is described as follows: IL-1β production in PMA-differentiated THP-1 cells stimulated with gramicidin (hTHP-1 assay containing 2% fetal bovine serum; Procedures 1 and 2). The assay is classed as cell-based, human. The following applies: 2% fetal bovine serum. In outline:
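Secreted IL-1β, read by HTRF, after gramicidin challenge (5 μM, 2 h) of THP-1 cells differentiated with PMA (20 ng/ml, 16-18 h) and plated at 50,000 cells/well in 2% FBS medium. Compounds, 0.0017-100 μM final with 0.37% DMSO, were added 1 h before stimulation.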

Setting [1] is: Homo sapiens, THP-1, Table B3, hTHP-1 assay, class symbols, read-out: IC50.
Setting [2] is: Homo sapiens, THP-1, Table B1, numeric bounds, read-out: Average IC50 of compounds in hTHP-1 assay: hTHP-1 IC50.
Where [3] appears, read: Table B2, class symbols, read-out: hTHP-1 IC50.
Setting [4] is: Table B1, class symbols, read-out: Average IC50 of compounds in hTHP-1 assay: hTHP-1 IC50.
Where [5] appears, read: Homo sapiens, THP-1, Table B2, class symbols, read-out: hTHP-1 IC50.
[6] abbreviates: Homo sapiens, THP-1, Table B1, class symbols, read-out: Average IC50 of compounds in hTHP-1 assay: hTHP-1 IC50.
The mark [7] stands for this setting: Homo sapiens, THP-1, Table B4, class symbols, read-out: hTHP-1 IC50.

Regarding `CCc1c(CC(F)(F)F)nc2c(c1NC(=O)N=S(N)(=O)c1sc(C(C)(C)O)cc1F)CCC2` (stereo not shown) [Example 594, N′-((3-ethyl-2-(2,2,2-trifluoroethyl)-6,7-dihydro-5H-cyclopenta[b]pyridin-4-yl)carbamoyl)-3-fluoro-5-(2-hydroxypropan-2-yl)thiophene-2-sulfonimidamide], the IC50 under setting [1] was in the range of 1000 to 5000 nM.

Turning to `CC(C)(O)c1nc(S(N)(=O)=NC(=O)Nc2c3c(nc4c2CCC4)CCC3)cs1` (single isomer, unassigned) [Compound 154b, (S) or (R)-N′-((1,2,3,5,6,7-hexahydrodicyclo-penta[b,e]pyridin-8-yl)carbamoyl)-2-(2-hydroxypropan-2-yl)thiazole-4-sulfonimidamide], the IC50 under setting [2] was above 28000 nM.

Regarding `CC1(C)CCc2c1nc1c(c2NC(=O)N=S(N)(=O)c2sc(C(C)(O)CO)cc2F)CCC1` (single isomer, unassigned) [Compound 640c, (R, S) and (S, S) or (S, R) and (R, R)-5-(1,2-Dihydroxypropan-2-yl)-N′-((3,3-dimethyl-1,2,3,5,6,7-hexahydrodicyclopenta [b,e]pyridin-8-yl)carbamoyl)-3-fluorotliophene-2-sulfonimidamide], the IC50 under setting [3] lay within 1000 to 5000 nM.

As to `Cc1nc2c(c(NC(=O)N=S(N)(=O)c3nn(C(F)F)cc3F)c1-c1ccccc1)CCC2` (stereo not shown) [Example 620, 1-(Difluoromethyl)-4-fluoro-N′-((2-methyl-3-phenyl-6,7-dihydro-5H-cyclopenta[b]pyridin-4-yl)carbamoyl)-1H-pyrazole-3-sulfonimidamide], the IC50 under setting [1] is 200 to 1000 nM.

Turning to `Cc1c(C2CC2)nc2c(c1NC(=O)N=S(N)(=O)c1sc(C(C)(C)O)cc1F)CCC2` (single isomer, unassigned) [Compound 174a, (R) or (S)-N′-((2-cyclopropyl-3-methyl-6,7-dihydro-5H-cyclopenta[b]pyridin-4-yl)carbamoyl)-3-fluoro-5-(2-hydroxypropan-2-yl)thio-phene-2-sulfonimidamide], the IC50 under setting [4] fell in the range of 5000 to 30000 nM.

As to `CC(C)(O)c1cc(F)c(S(N)(=O)=NC(=O)Nc2c3c(nc4c2CCC4(C)C)CCC3)s1` (single isomer, unassigned) [Compound 102b, (R) or (S)-N′-((3,3-dimethyl-1,2,3,5,6,7-hexahydro-dicyclopenta[b,e]pyridin-8-yl)carbamoyl)-3-fluoro-5-(2-hydroxy-propan-2-yl)thiophene-2-sulfonimidamide], the IC50 under setting [4] was 8 to 40 nM.

For `CC(C)n1cc(CO)c(S(N)(=O)=NC(=O)Nc2c3c(nc4c2CCC4(C)C)CCC3)n1` (stereo not shown) [Compound 682, N′-((3,3-dimethyl-1,2,3,5,6,7-hexahydrodicyclopenta [b,e]pyridin-8-yl)carbamoyl)-4-(hydroxymethyl)-1-isopropyl-1H-pyrazole-3-sulfonimidamide], under setting [5], the IC50 lay within 1000 to 5000 nM.

Consider `NS(=O)(=NC(=O)Nc1c2c(nc3c1CCC31CC1)CCC2)c1cnn(C(F)F)c1` (single isomer, unassigned) [Compound 638b, (S) or (R)-1-(Difluoromethyl)-N′-((1′,5′,6′,7′-tetrahydro-2′H-spiro[cyclopropane-1,3′-dicyclopenta[b,e]pyridin]-8′-yl)carbamoyl)-1H-pyrazole-4-sulfonimidamide], for which the IC50 (Homo sapiens, THP-1, Table B2, numeric bounds, read-out: hTHP-1 IC50) is above 30000 nM.

`CC1CCc2c1nc1c(c2NC(=O)N=S(N)(=O)c2ccn(C(C)C)n2)CCC1` (single isomer, unassigned) [Compound 129ba, (R,S) or (R,R)-1-isopropyl-N′-((3-methyl-1,2,3,5,6,7-hexa-hydrodicyclo-penta[b,e]pyridin-8-yl)carbamoyl)-1H-pyrazole-3-sulfonimidamide]: the IC50 under setting [4] was 1000 to 5000 nM.

`Cc1nc2c(c(NC(=O)N=S(N)(=O)c3cnc(C(C)(C)O)s3)c1C)CCC2` (stereo not shown) [Compound 138, N′-((2,3-dimethyl-6,7-dihydro-5H-cyclopenta[b]pyridin-4-yl)carbamoyl)-2-(2-hydroxypropan-2-yl)thiazole-5-sulfonimidamide]: under setting [6], the IC50 fell in the range of 5000 to 30000 nM.

Turning to `Cc1c(C(F)(F)F)nc2c(c1NC(=O)N=S(N)(=O)c1cnc(C(C)(O)CO)s1)CCC2` (single isomer, unassigned) [Compound 605b, (R, R) and (S, R) or (R, S) and (S, S)-2-(l,2-Dihydroxypropan-2-yl)-N′-((3-methyl-2-(trifluoromethyl)-6,7-dihydro-5H-cyclopenta[b]pyridin-4-yl)carbamoyl) thiazole-5-sulfonimidamide], under setting [3], the half-inhibitory concentration (IC50) fell in the range of 200 to 1000 nM.

For the compound `CCn1ccc(S(N)(=O)=NC(=O)Nc2c3c(nc4c2CC[C@H]4C)CCC3)n1` (stereo partly drawn) [Compound 634, 1-Ethyl-N′-(((R)-3-methyl-1,2,3,5,6,7-hexahydrodicyclopenta[b,e]pyridin-8-yl)carbamoyl)-1H-pyrazole-3-sulfonimidamide], under setting [5], the IC50 fell in the range of 40 to 200 nM.

Consider `CC(C)(O)c1cc(F)c(S(N)(=O)=NC(=O)Nc2c3c(nc4c2CCC4)CCC3)s1` (single isomer, unassigned) [Compound 105a, (R) or (S)-3-fluoro-N′-((1,2,3,5,6,7-hexahydro-dicyclopenta[b,e]pyridin-8-yl)carbamoyl)-5-(2-hydroxypropan-2-yl)thio-phene-2-sulfonimidamide], for which, under setting [4], the IC50 is 40 to 200 nM.

Turning to `CC(C)c1ncc(F)c(C(C)C)c1NC(=O)N=S(N)(=O)c1nc(C(C)(C)O)cs1` (stereo not shown) [Compound 163, N′-((5-fluoro-2,4-diisopropylpyridin-3-yl)carbamoyl)-4-(2-hydroxypropan-2-yl)thiazole-2-sulfonimidamide], the IC50 under setting [6] lay in the range of 200 to 1000 nM.

`CC(C)(O)c1cnc(S(N)(=O)=NC(=O)Nc2c3c(nc4c2CCC4(C)C)CCC3)s1` (stereo not shown) [Compound 686, N′-((3,3-dimethyl-1,2,3,5,6,7-hexahydrodicyclopenta[b,e]pyridin-8-yl)carbamoyl)-5-(2-hydroxypropan-2-yl)thiazole-2-sulfonimidamide]: the IC50 under setting [5] was in the range of 200 to 1000 nM.

For `CC1CCc2c1nc1c(c2NC(=O)N=S(N)(=O)c2cc(C(C)(C)O)cs2)CCC1C` (stereo not shown) [131f^], the half-maximal inhibitory concentration (IC50) under setting [4] lay within 1000 to 5000 nM.

As for `CCn1cc(F)c(S(N)(=O)=NC(=O)Nc2c3c(nc(C(F)(F)F)c2-c2ccccc2F)CCC3)n1` (stereo not shown) [Example 746, 1-Ethyl-4-fluoro-N′-((3-(2-fluorophenyl)-2-(trifluoromethyl)-6,7-dihydro-5H-cyclopenta[b]pyridin-4-yl)carbamoyl)-1H-pyrazole-3-sulfonimidamide], the IC50 under setting [7] fell in the range of 8 to 40 nM.

Regarding `CC1(C)CCc2c1nc1c(c2NC(=O)N=S(N)(=O)c2cc(CO)n(CCO)n2)CCC1` (stereo not shown) [Example 626, N′-((3,3-dimethyl-1,2,3,5,6,7-hexahydrodicyclopenta[b,e]pyridin-8-yl)carbamoyl)-1-(2-hydroxyethyl)-5-(hydroxymethyl)-1H-pyrazole-3-sulfonimidamide], the IC50 under setting [1] lay in the range of 200 to 1000 nM.

Take `CC1CCc2c1nc1c(c2NC(=O)N=S(N)(=O)c2cnc(C(O)CO)s2)CCC1` (stereo not shown) [Example 752, 2-(1,2-Dihydroxyethyl)-N′-((3-methyl-1,2,3,5,6,7-hexahydrodicyclopenta[b,e]pyridin-8-yl)carbamoyl) thiazole-5-sulfonimidamide]: under setting [7], the IC50 lay in the range of 1000 to 5000 nM.

In the case of `CC1CCc2c1nc1c(c2NC(=O)N=S(N)(=O)c2cc(C(C)(C)O)cs2)CCC1C` (single isomer, unassigned) [Compound 131c, (S,R,S) and (S,S,R) or (S,R,R) or (S,S,S)-N′-((3,5-dimethyl-1,2,3,5,6,7-hexa-hydrodicyclo-penta[b,e]pyridin-8-yl)carbamoyl)-4-(2-hy-droxypropan-2-yl)thiophene-2-sulfonimidamide], the IC50 under setting [4] lay in the range of 5000 to 30000 nM.

With `Cc1c(C2CC2)nc2c(c1NC(=O)N=S(N)(=O)c1cnn3c1OCCC3)CCC2` (stereo not shown) [Compound 306, N′-((2-cyclopropyl-3-methyl-6,7-dihydro-5H-cyclopenta[b]pyridin-4-yl)carbamoyl)-6,7-dihydro-5H-pyrazolo[5,1-b][1,3]oxazine-3-sulfonimidamide], the IC50 under setting [5] was in the range of 5000 to 30000 nM.

For the compound `COCCOC[C@@](C)(O)c1ncc(S(N)(=O)=NC(=O)Nc2c3c(nc4c2CCC4(C)C)CCC3)s1` (stereo partly drawn) [Compound 736, N′-((3,3-dimethyl-1,2,3,5,6,7-hexahydrodicyclopenta [b,e]pyridin-8-yl)carbamoyl)-2-((R)-2-hydroxy-1-(2-methoxyethoxy)propan-2-yl)thiazole-5-sulfonimidamide], the IC50 under setting [5] was in the range of 1000 to 5000 nM.

Regarding `CC1(C)CCc2c1nc1c(c2NC(=O)N=S(N)(=O)c2ccn(C(F)F)n2)CCC1` (single isomer, unassigned) [Compound 122a, (R) or (S)-1-(difluoromethyl)-N′-((3,3-dimethyl-1,2,3,5,6,7-hexahydrodicyclo-penta[b,e]pyridin-8-yl)carbamoyl)-1H-pyrazole-3-sulfonimidamide], the concentration for half-maximal inhibition (IC50) under setting [4] lay within 40 to 200 nM.

`Cc1c(C(F)(F)F)nc2c(c1NC(=O)N=S(N)(=O)c1nn(-c3ccccc3)cc1F)CCC2` (single isomer, unassigned) [Example 784, (S) or (R)-4-fluoro-N′-((3-methyl-2-(trifluoromethyl)-6,7-dihydro-5H-cyclopenta [b]pyridin-4-yl)carbamoyl)-1-phenyl-1H-pyrazole-3-sulfonimidamide]: the IC50 (Table B4, class symbols, read-out: hTHP-1 IC50) was 5000 to 30000 nM.

Consider `CC(C)(O)c1ncc(S(N)(=O)=NC(=O)Nc2c3c(nc4c2CCC4F)CCC3)s1` (single isomer, unassigned) [Compound 183b, (S,S) or (S,R)-N′-((3-fluoro-1,2,3,5,6,7-hexahydrodicyclo-penta[b,e]pyridin-8-yl)carbamoyl)-2-(2-hydroxypropan-2-yl)thiazole-5-sulfonimidamide], for which the IC50 under setting [2] is above 30000 nM.

The IC50 is the midpoint of a concentration-inhibition curve.
